Reference: PubChem BioAssay (NCI)
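Where inhibition never reached the appropriate level, the endpoint shown equals the highest concentration tested. Otherwise, values were interpolated linearly from a five-concentration, 48-hour dose response in 96-well plates. TGI: concentration producing complete growth inhibition.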

Legend:
Test in all cases: NCI tumour cell line growth inhibition, 48 h
786-0 renal = test system: 786-0 renal
A498 renal = test system: A498 renal
A549 NSCLC = test system: A549 NSCLC
ACHN renal = test system: ACHN renal
CAKI-1 renal = test system: CAKI-1 renal
CCRF-CEM leukemia = test system: CCRF-CEM leukemia
COLO 205 colon = test system: COLO 205 colon
DLD-1 colon = test system: DLD-1 colon
DMS 114 small cell lung = test system: DMS 114 small cell lung
DMS 273 small cell lung = test system: DMS 273 small cell lung
EKVX NSCLC = test system: EKVX NSCLC
HCT-116 colon = test system: HCT-116 colon
HCT-15 colon = test system: HCT-15 colon
HOP-62 NSCLC = test system: HOP-62 NSCLC
HT29 colon = test system: HT29 colon
IGROV1 ovarian = test system: IGROV1 ovarian
K-562 leukemia = test system: K-562 leukemia
KM12 colon = test system: KM12 colon
KM20L2 colon = test system: KM20L2 colon
LOX IMVI melanoma = test system: LOX IMVI melanoma
LXFL 529 NSCLC = test system: LXFL 529 NSCLC
M14 melanoma = test system: M14 melanoma
M19-MEL melanoma = test system: M19-MEL melanoma
MALME-3M melanoma = test system: MALME-3M melanoma
MOLT-4 leukemia = test system: MOLT-4 leukemia
NCI-H226 lung = test system: NCI-H226 lung
NCI-H23 lung = test system: NCI-H23 lung
NCI-H460 lung = test system: NCI-H460 lung
NCI-H522 lung = test system: NCI-H522 lung
OVCAR-3 ovarian = test system: OVCAR-3 ovarian
OVCAR-4 ovarian = test system: OVCAR-4 ovarian
OVCAR-5 ovarian = test system: OVCAR-5 ovarian
OVCAR-8 ovarian = test system: OVCAR-8 ovarian
RPMI-8226 leukemia = test system: RPMI-8226 leukemia
RXF 393 renal = test system: RXF 393 renal
RXF-631 renal = test system: RXF-631 renal
SF-268 CNS = test system: SF-268 CNS
SF-295 CNS = test system: SF-295 CNS
SF-539 CNS = test system: SF-539 CNS
SK-MEL-2 melanoma = test system: SK-MEL-2 melanoma
SK-MEL-28 melanoma = test system: SK-MEL-28 melanoma
SK-OV-3 ovarian = test system: SK-OV-3 ovarian
SN12C renal = test system: SN12C renal
SNB-19 CNS = test system: SNB-19 CNS
SNB-75 CNS = test system: SNB-75 CNS
SNB-78 CNS = test system: SNB-78 CNS
SW-620 colon = test system: SW-620 colon
TK-10 renal = test system: TK-10 renal
U251 CNS = test system: U251 CNS
UACC-62 melanoma = test system: UACC-62 melanoma
UO-31 renal = test system: UO-31 renal
XF 498 CNS = test system: XF 498 CNS
HCC-2998 colon = test system: HCC-2998 colon
HL-60(TB) leukemia = test system: HL-60(TB) leukemia
HOP-18 NSCLC = test system: HOP-18 NSCLC
SK-MEL-5 melanoma = test system: SK-MEL-5 melanoma
UACC-257 melanoma = test system: UACC-257 melanoma
HOP-92 NSCLC = test system: HOP-92 NSCLC
SR leukemia = test system: SR leukemia

SMILES: Cc1cc(NS(=O)(=O)c2ccc(NC(=O)c3cccc4c(N)c5ccccc5nc34)cc2)no1
- TGI (786-0 renal): 33.7 µM
- TGI (A498 renal): 52 µM
- TGI (A549 NSCLC): > 100 µM
- TGI (ACHN renal): 46.6 µM
- TGI (CAKI-1 renal): 80.4 µM
- TGI (CCRF-CEM leukemia): 66.5 µM
- TGI (COLO 205 colon): 53.6 µM
- TGI (DLD-1 colon): > 100 µM
- TGI (DMS 114 small cell lung): 45.6 µM
- TGI (DMS 273 small cell lung): 49 µM
- TGI (EKVX NSCLC): > 100 µM
- TGI (HCT-116 colon): 27.6 µM
- TGI (HCT-15 colon): > 100 µM
- TGI (HOP-62 NSCLC): 86.9 µM
- TGI (HT29 colon): 80.8 µM
- TGI (IGROV1 ovarian): 59.3 µM
- TGI (K-562 leukemia): > 100 µM
- TGI (KM12 colon): 58.3 µM
- TGI (KM20L2 colon): > 100 µM
- TGI (LOX IMVI melanoma): 65.8 µM
- TGI (LXFL 529 NSCLC): > 100 µM
- TGI (M14 melanoma): 54 µM
- TGI (M19-MEL melanoma): 42.1 µM
- TGI (MALME-3M melanoma): 77.4 µM
- TGI (MOLT-4 leukemia): > 100 µM
- TGI (NCI-H226 lung): 33.4 µM
- TGI (NCI-H23 lung): 52.2 µM
- TGI (NCI-H460 lung): > 100 µM
- TGI (NCI-H522 lung): 33.9 µM
- TGI (OVCAR-3 ovarian): 52.8 µM
- TGI (OVCAR-4 ovarian): 70.5 µM
- TGI (OVCAR-5 ovarian): > 100 µM
- TGI (OVCAR-8 ovarian): 59.4 µM
- TGI (RPMI-8226 leukemia): 62.6 µM
- TGI (RXF 393 renal): 31.9 µM
- TGI (RXF-631 renal): 38.7 µM
- TGI (SF-268 CNS): 76.9 µM
- TGI (SF-295 CNS): 67.2 µM
- TGI (SF-539 CNS): 47.6 µM
- TGI (SK-MEL-2 melanoma): 37.2 µM
- TGI (SK-MEL-28 melanoma): 44.2 µM
- TGI (SK-OV-3 ovarian): 75.5 µM
- TGI (SN12C renal): 40.3 µM
- TGI (SNB-19 CNS): 34 µM
- TGI (SNB-75 CNS): > 100 µM
- TGI (SNB-78 CNS): 71.1 µM
- TGI (SW-620 colon): 94.2 µM
- TGI (TK-10 renal): > 100 µM
- TGI (U251 CNS): 78.2 µM
- TGI (UACC-62 melanoma): 57.7 µM
- TGI (UO-31 renal): 95.7 µM
- TGI (XF 498 CNS): 55.5 µM

SMILES: Cc1ccccc1C(=O)Oc1ccc(Oc2ccccc2)cc1
- TGI (786-0 renal): > 100 µM
- TGI (A498 renal): > 100 µM
- TGI (A549 NSCLC): > 100 µM
- TGI (ACHN renal): > 100 µM
- TGI (CAKI-1 renal): > 100 µM
- TGI (CCRF-CEM leukemia): > 100 µM
- TGI (COLO 205 colon): > 100 µM
- TGI (DLD-1 colon): > 100 µM
- TGI (DMS 114 small cell lung): > 100 µM
- TGI (DMS 273 small cell lung): > 100 µM
- TGI (EKVX NSCLC): > 100 µM
- TGI (HCC-2998 colon): > 100 µM
- TGI (HCT-116 colon): > 100 µM
- TGI (HCT-15 colon): > 100 µM
- TGI (HL-60(TB) leukemia): > 100 µM
- TGI (HOP-18 NSCLC): > 100 µM
- TGI (HOP-62 NSCLC): > 100 µM
- TGI (HT29 colon): > 100 µM
- TGI (IGROV1 ovarian): > 100 µM
- TGI (K-562 leukemia): > 100 µM
- TGI (KM12 colon): > 100 µM
- TGI (KM20L2 colon): > 100 µM
- TGI (LXFL 529 NSCLC): > 100 µM
- TGI (M14 melanoma): > 100 µM
- TGI (M19-MEL melanoma): > 100 µM
- TGI (MALME-3M melanoma): > 100 µM
- TGI (MOLT-4 leukemia): > 100 µM
- TGI (NCI-H226 lung): > 100 µM
- TGI (NCI-H23 lung): > 100 µM
- TGI (NCI-H460 lung): > 100 µM
- TGI (OVCAR-3 ovarian): > 100 µM
- TGI (OVCAR-4 ovarian): > 100 µM
- TGI (OVCAR-5 ovarian): > 100 µM
- TGI (OVCAR-8 ovarian): > 100 µM
- TGI (RPMI-8226 leukemia): > 100 µM
- TGI (RXF 393 renal): > 100 µM
- TGI (SF-268 CNS): > 100 µM
- TGI (SF-295 CNS): > 100 µM
- TGI (SF-539 CNS): > 100 µM
- TGI (SK-MEL-2 melanoma): > 100 µM
- TGI (SK-MEL-5 melanoma): > 100 µM
- TGI (SK-OV-3 ovarian): > 100 µM
- TGI (SN12C renal): > 100 µM
- TGI (SNB-19 CNS): > 100 µM
- TGI (SNB-75 CNS): > 100 µM
- TGI (SNB-78 CNS): > 100 µM
- TGI (SW-620 colon): > 100 µM
- TGI (TK-10 renal): > 100 µM
- TGI (U251 CNS): > 100 µM
- TGI (UACC-257 melanoma): > 100 µM
- TGI (UACC-62 melanoma): > 100 µM
- TGI (UO-31 renal): > 100 µM
- TGI (XF 498 CNS): > 100 µM

SMILES: Cc1ccc(C)c(NC(=O)c2cc(-c3ccc([N+](=O)[O-])cc3)nc(N)n2)c1
- TGI (786-0 renal): > 100 µM
- TGI (A498 renal): > 100 µM
- TGI (A549 NSCLC): > 100 µM
- TGI (ACHN renal): > 100 µM
- TGI (CAKI-1 renal): > 100 µM
- TGI (CCRF-CEM leukemia): > 100 µM
- TGI (COLO 205 colon): > 100 µM
- TGI (DLD-1 colon): > 100 µM
- TGI (DMS 114 small cell lung): > 100 µM
- TGI (DMS 273 small cell lung): > 100 µM
- TGI (EKVX NSCLC): > 100 µM
- TGI (HCC-2998 colon): > 100 µM
- TGI (HCT-116 colon): > 100 µM
- TGI (HCT-15 colon): > 100 µM
- TGI (HL-60(TB) leukemia): > 100 µM
- TGI (HOP-18 NSCLC): > 100 µM
- TGI (HOP-62 NSCLC): > 100 µM
- TGI (HOP-92 NSCLC): > 100 µM
- TGI (HT29 colon): > 100 µM
- TGI (IGROV1 ovarian): > 100 µM
- TGI (K-562 leukemia): > 100 µM
- TGI (KM12 colon): > 100 µM
- TGI (KM20L2 colon): > 100 µM
- TGI (LOX IMVI melanoma): > 100 µM
- TGI (LXFL 529 NSCLC): > 100 µM
- TGI (M14 melanoma): > 100 µM
- TGI (M19-MEL melanoma): > 100 µM
- TGI (MALME-3M melanoma): > 100 µM
- TGI (MOLT-4 leukemia): > 100 µM
- TGI (NCI-H226 lung): > 100 µM
- TGI (NCI-H23 lung): > 100 µM
- TGI (NCI-H460 lung): > 100 µM
- TGI (NCI-H522 lung): > 100 µM
- TGI (OVCAR-3 ovarian): > 100 µM
- TGI (OVCAR-4 ovarian): > 100 µM
- TGI (OVCAR-5 ovarian): > 100 µM
- TGI (OVCAR-8 ovarian): > 100 µM
- TGI (RPMI-8226 leukemia): > 100 µM
- TGI (RXF 393 renal): > 100 µM
- TGI (SF-268 CNS): > 100 µM
- TGI (SF-295 CNS): > 100 µM
- TGI (SF-539 CNS): > 100 µM
- TGI (SK-MEL-2 melanoma): > 100 µM
- TGI (SK-MEL-28 melanoma): > 100 µM
- TGI (SK-MEL-5 melanoma): > 100 µM
- TGI (SK-OV-3 ovarian): > 100 µM
- TGI (SN12C renal): > 100 µM
- TGI (SNB-19 CNS): > 100 µM
- TGI (SNB-75 CNS): > 100 µM
- TGI (SR leukemia): > 100 µM
- TGI (SW-620 colon): > 100 µM
- TGI (TK-10 renal): > 100 µM
- TGI (U251 CNS): > 100 µM
- TGI (UACC-257 melanoma): > 100 µM
- TGI (UACC-62 melanoma): > 100 µM
- TGI (UO-31 renal): > 100 µM
- TGI (XF 498 CNS): > 100 µM
